Reference: ChEMBL document CHEMBL3045150, “Synthesis and structureactivity relationship studies on novel 8-amino-3-[2-(4-fluorophenoxy)ethyl]-1,3-diazaspiro[4.5]decane-2,4-dione derivatives as anticonvulsant agents” (Med Chem Res, 2013)

What was measured:
Mus musculus [1] = test: Neurotoxicity in albino Mus musculus (mouse) assessed as motor impairment at 100 mg/kg, po measured at 4 hr by rotarod test; type: toxicity, organism-based; parameters: dose 100 mg/kg, route oral; settings: in vivo
Mus musculus [2] = test: Neurotoxicity in albino Mus musculus (mouse) assessed as motor impairment at 100 mg/kg, po measured at 2 hr by rotarod test; type: toxicity, organism-based; parameters: dose 100 mg/kg, route oral; settings: in vivo
Mus musculus [3] = test: Anticonvulsant activity in albino Mus musculus (mouse) assessed as protection against maximal electric shock-induced seizures at 100 mg/kg, ip administered 30 min prior to maximal electric shock-challenge measured up to 4 hr relative to control; type: functional; settings: route intraperitoneal

Row | SMILES | Activity (Mus musculus [1]) | Activity (Mus musculus [2]) | Activity (Mus musculus [3])
1 | O=C(NC1CCC2(CC1)NC(=O)N(CCOc1ccc(F)cc1)C2=O)Oc1ccccc1 (stereo not given) | Non-toxic | Non-toxic | 56.89%
2 | Cc1cccc(S(=O)(=O)NC2CCC3(CC2)NC(=O)N(CCOc2ccc(F)cc2)C3=O)c1 (stereo not given) | Non-toxic | Non-toxic | 4.55%
3 | O=C(NC1CCC2(CC1)NC(=O)N(CCOc1ccc(F)cc1)C2=O)c1cccc(F)c1 (stereo not given) | Toxic | Toxic | 58.02%
4 | Cc1ccc(S(=O)(=O)NC2CCC3(CC2)NC(=O)N(CCOc2ccc(F)cc2)C3=O)cc1C (stereo not given) | Non-toxic | Non-toxic | 42.61%
5 | O=C(NC1CCC2(CC1)NC(=O)N(CCOc1ccc(F)cc1)C2=O)c1ccccc1Cl (stereo not given) | Non-toxic | Non-toxic | 49.41%
6 | O=C(NC1CCC2(CC1)NC(=O)N(CCOc1ccc(F)cc1)C2=O)c1ccccc1 (stereo not given) | Non-toxic | Non-toxic | 55.78%
7 | Cc1ccc(C(=O)NC2CCC3(CC2)NC(=O)N(CCOc2ccc(F)cc2)C3=O)cc1 (stereo not given) | Non-toxic | Non-toxic | 79.58%
8 | O=C1NC2(CCC(NS(=O)(=O)c3cccc(Br)c3)CC2)C(=O)N1CCOc1ccc(F)cc1 (stereo not given) | Non-toxic | Non-toxic | 7.41%
9 | Cc1ccc(CS(=O)(=O)NC2CCC3(CC2)NC(=O)N(CCOc2ccc(F)cc2)C3=O)cc1 (stereo not given) | Toxic | Toxic | 12.6%
10 | O=C(NC1CCC2(CC1)NC(=O)N(CCOc1ccc(F)cc1)C2=O)c1ccccc1C(F)(F)F (stereo not given) | Non-toxic | Non-toxic | 79.32%
11 | Cc1ccc(S(=O)(=O)NC2CCC3(CC2)NC(=O)N(CCOc2ccc(F)cc2)C3=O)cc1 (stereo not given) | Non-toxic | Non-toxic | 1.14%
12 | COc1ccc(S(=O)(=O)NC2CCC3(CC2)NC(=O)N(CCOc2ccc(F)cc2)C3=O)cc1 (stereo not given) | Non-toxic | Non-toxic | 9.23%
13 | CC(C)(C)c1ccc(C(=O)NC2CCC3(CC2)NC(=O)N(CCOc2ccc(F)cc2)C3=O)cc1 (stereo not given) | Non-toxic | Non-toxic | 48.15%
14 | O=C(NC1CCC2(CC1)NC(=O)N(CCOc1ccc(F)cc1)C2=O)c1ccc(Cl)cc1 (stereo not given) | Toxic | Toxic | 49.83%
15 | O=C(NC1CCC2(CC1)NC(=O)N(CCOc1ccc(F)cc1)C2=O)OCc1ccccc1Cl (stereo not given) | Non-toxic | Non-toxic | 48.82%
16 | Cc1ccc(C)c(S(=O)(=O)NC2CCC3(CC2)NC(=O)N(CCOc2ccc(F)cc2)C3=O)c1 (stereo not given) | Non-toxic | Non-toxic | 43.95%
17 | Cc1cc(F)ccc1S(=O)(=O)NC1CCC2(CC1)NC(=O)N(CCOc1ccc(F)cc1)C2=O (stereo not given) | Non-toxic | Non-toxic | 3.25%
18 | Cc1cc(C)cc(S(=O)(=O)NC2CCC3(CC2)NC(=O)N(CCOc2ccc(F)cc2)C3=O)c1 (stereo not given) | Non-toxic | Non-toxic | 43.12%
19 | CCc1ccc(S(=O)(=O)NC2CCC3(CC2)NC(=O)N(CCOc2ccc(F)cc2)C3=O)cc1 (stereo not given) | Non-toxic | Non-toxic | 1.23%
20 | O=C1NC2(CCC(NS(=O)(=O)c3ccccc3F)CC2)C(=O)N1CCOc1ccc(F)cc1 (stereo not given) | Non-toxic | Non-toxic | 4.94%
21 | O=C(Cc1ccccc1)NC1CCC2(CC1)NC(=O)N(CCOc1ccc(F)cc1)C2=O (stereo not given) | Non-toxic | Non-toxic | 47.21%
22 | O=C(NC1CCC2(CC1)NC(=O)N(CCOc1ccc(F)cc1)C2=O)c1ccc(F)cc1 (stereo not given) | Toxic | Toxic | 57.94%
23 | Cc1cccc(C(=O)NC2CCC3(CC2)NC(=O)N(CCOc2ccc(F)cc2)C3=O)c1 (stereo not given) | Non-toxic | Non-toxic | 78.62%
24 | O=C(NC1CCC2(CC1)NC(=O)N(CCOc1ccc(F)cc1)C2=O)c1ccccc1F (stereo not given) | Toxic | Toxic | 48.12%
25 | N#Cc1ccccc1S(=O)(=O)NC1CCC2(CC1)NC(=O)N(CCOc1ccc(F)cc1)C2=O (stereo not given) | Non-toxic | Non-toxic | 4.51%
26 | Cc1ccccc1S(=O)(=O)NC1CCC2(CC1)NC(=O)N(CCOc1ccc(F)cc1)C2=O (stereo not given) | Non-toxic | Non-toxic | 13%
27 | O=C(NC1CCC2(CC1)NC(=O)N(CCOc1ccc(F)cc1)C2=O)c1cccc(Cl)c1 (stereo not given) | Toxic | Toxic | 58.61%
28 | O=C1NC2(CCC(NS(=O)(=O)c3cccc(F)c3)CC2)C(=O)N1CCOc1ccc(F)cc1 (stereo not given) | Non-toxic | Non-toxic | 6.5%
29 | O=C1NC2(CCC(NS(=O)(=O)c3cccc(Cl)c3)CC2)C(=O)N1CCOc1ccc(F)cc1 (stereo not given) | Toxic | Toxic | 4.55%
30 | O=C(NC1CCC2(CC1)NC(=O)N(CCOc1ccc(F)cc1)C2=O)Oc1ccc(Cl)cc1 (stereo not given) | Non-toxic | Non-toxic | 59.29%
